Experimental data from article PMC8041433 (Environmental Health Perspectives, 2021).
Values joined by “and” are separate entries in the source; they are usually repeats but may differ in a detail not shown here. Equal entries are not always repeated. Structures can show the parent of a compound that is named as a salt. Where two headings read alike, the source gives them in different places.

Columns and labels:
recombinant human AChE [1] = target: T1, recombinant human AChE (Homo sapiens, UniProt P22303); test: biochemical; conditions: for IC50: IC50 (uM)
T1 sequence (P22303 32-614): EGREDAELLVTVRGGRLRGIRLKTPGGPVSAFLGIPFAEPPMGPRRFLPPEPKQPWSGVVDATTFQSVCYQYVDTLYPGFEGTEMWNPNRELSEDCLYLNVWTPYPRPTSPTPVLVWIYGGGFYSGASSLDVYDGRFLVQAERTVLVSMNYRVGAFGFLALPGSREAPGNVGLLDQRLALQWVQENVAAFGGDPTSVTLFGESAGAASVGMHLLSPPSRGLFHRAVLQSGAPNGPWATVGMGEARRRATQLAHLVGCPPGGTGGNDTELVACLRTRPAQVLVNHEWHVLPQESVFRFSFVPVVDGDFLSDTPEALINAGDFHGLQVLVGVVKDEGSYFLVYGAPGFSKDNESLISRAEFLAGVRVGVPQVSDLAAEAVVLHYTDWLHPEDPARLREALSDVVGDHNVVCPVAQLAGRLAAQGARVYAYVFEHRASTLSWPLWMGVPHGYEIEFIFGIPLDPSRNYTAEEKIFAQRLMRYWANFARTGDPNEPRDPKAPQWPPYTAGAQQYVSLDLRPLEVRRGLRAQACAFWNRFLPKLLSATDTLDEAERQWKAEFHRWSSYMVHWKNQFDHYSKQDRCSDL

AChE in SH-SY5Y cells = AChE in SH-SY5Y cells (Homo sapiens, UniProt P22303); test: cell-based; conditions: for IC50: IC50 (uM)
Sequence of AChE in SH-SY5Y cells (P22303 32-614): as above

recombinant human AChE [2] = target: T1, recombinant human AChE

| Compound | CC-v2 (curve classes) (recombinant human AChE [1]) | Efficacy (recombinant human AChE [1]) | IC50 (recombinant human AChE [1]) [µM] | CC-v2 (curve classes) (AChE in SH-SY5Y cells) | IC50 (AChE in SH-SY5Y cells) | CC-v2 (curve classes) (recombinant human AChE [2]) | Efficacy (recombinant human AChE [2]) | AChE inhibition (result in words) (recombinant human AChE [1]) |
| --- | --- | --- | --- | --- | --- | --- | --- | --- |
| CC[C@@H](CO)NC(=O)[C@@H]1C=C2c3cccc4c3c(cn4C)C[C@H]2N(C)C1 [Methysergide] | -1.1 | -98.745 | 4.36 | -1.1 | 0.389 µM and 0.245 µM and 2.45 µM | 4 | -23.381 |  |
| [H]/N=C(\N/C(=N/[H])NCCCCCCNC(=N)NC(=N)Nc1ccc(Cl)cc1)Nc1ccc(Cl)cc1 [Chlorhexidine dihydrochloride] | -1.1 | -89.988 | 22.9 |  | 72.3 µM and 64.4 µM | 4 | 14.978 |  |
| COP(=O)(OC)Oc1ccc([N+](=O)[O-])cc1 [Methylparaoxon] | -1.1 | -92.551 |  | -1.1 |  | -2.1 | -96.544 |  |
| Cc1ccc(S(=O)(=O)Oc2ccc(N=Nc3ccc(-c4ccc(N=Nc5c(O)ccc6cc(S(=O)(=O)[O-])cc(S(=O)(=O)[O-])c56)c(C)c4)cc3C)cc2)cc1.[Na+].[Na+] [C.I. Acid Red 114] | -1.1 |  |  | 4 |  | 4 | 22.5 and 26.805 |  |
| CCOP(=O)(OCC)OC(=CCl)c1ccc(Cl)cc1Cl [Chlorfenvinphos] | -1.1 | -95.584 |  | -1.1 |  | -1.1 | -96.159 |  |
| Cc1nccn1CC1CCc2c(c3ccccc3n2C)C1=O (stereo not drawn) [Ondansetron] | 4 | -23.749 |  |  | 30.9 µM and 34.7 µM and 38.9 µM | 4 | 0 |  |
| CNC(=O)O/N=C/C(C)(C)S(C)(=O)=O [Aldoxycarb] | -1.1 and -2.1 |  |  | -2.1 |  |  |  |  |
| CNC(=C[N+](=O)[O-])NCCSCc1ccc(CN(C)C)o1 [Ranitidine, reference compound] |  |  |  | -1.1 |  |  |  |  |
| COP(N)(=O)SC (stereo not drawn) [Methamidophos] | -2.1 |  |  | -2.1 |  |  |  |  |
| CCOC(=O)CC(SP(=S)(OC)OC)C(=O)OCC (stereo not drawn) [malathion] |  |  |  |  |  |  |  | not identified to inhibit AChE |
| CC1(C)Cc2cccc(O)c2O1 [2,3-Dihydro-2,2-dimethyl-7-benzofuranol, reference compound] |  |  |  |  |  |  |  | inactive |
| CCOP(=S)(OCC)Oc1cc(C)nc(N(CC)CC)n1 [Pirimiphos-ethyl] | 4 | -15.947 |  |  |  | 4 | -16.211 | did not show effects |
| CCOP(=S)(OCC)Oc1cc(Cl)c(Br)cc1Cl [Bromophos-ethyl] | -3 | -50.884 |  |  |  | -1.1 | -91.453 |  |
| COc1cc2nc(N3CCN(C(=O)C4COc5ccccc5O4)CC3)nc(N)c2cc1OC (stereo not drawn) [Doxazosin mesylate] | -2.2 | -37.943 |  |  |  | 4 | 0 |  |
| COP(=S)(OC)SCn1nnc2ccccc2c1=O [Azinphos-methyl] |  |  |  | -2.1 and -1.1 |  | 4 |  |  |
